According to patent publication US8242055B2, “Herbicidally and insecticidally active phenyl-substituted pyridazinones” (Bayer Cropscience AG, priority 2008, dated 2012):

Assays:
[1] = test system: eggs of the tobacco bud worm (Heliothis virescens); assay: Heliothis virescens test (spray treatment); type: in vivo; conditions: spray treatment of soybean leaves, application rate 500 g/ha, after 7 days; 100% = all eggs killed
Protocol: [table] To produce a suitable preparation of active compound, 1 part by weight of active compound is mixed with the stated amounts of solvents and emulsifier, and the concentrate is diluted with emulsifier-containing water to the desired concentration. Soybean leaves (Glycine max.) are sprayed with an active compound preparation of the desired concentration and, after drying, populated with eggs of the tobacco bud worm (Heliothis virescens). After 7 days, the effect in % is determined. 100% means that all the eggs have been killed; 0% means that none of the eggs have been killed.

Meloidogyne incognita = Meloidogyne incognita test (MELGIN); type: in vivo; conditions: application rate 20 ppm, lettuce roots; 100% = no galls formed
Protocol: [table] To produce a suitable preparation of active compound, 1 part by weight of active compound is mixed with the stated amounts of solvents and emulsifier, and the concentrate is diluted with water to the desired concentration. Containers are filled with sand, solution of active compound, Meloidogyne incognita egg/larvae suspension and lettuce seeds. The lettuce seeds germinate and the plants develop. On the roots, galls are formed. After the desired period of time, the nematicidal activity is determined in % by the formation of galls. 100% means that no galls are formed; 0% means that the number of galls on the treated plants corresponds to that of the untreated control.

**Q.** Which melting point does the source give for `Cn1ncc(O)c(-c2ccc(Cl)c(Cl)c2)c1=O` [I-1-a-4, 4-(3,4-dichlorophenyl)-5-hydroxy-2-methyl-3(2H)-pyridazinone] here?
**A.** 315 °C

**Q.** Which “effect in % (eggs killed)” value [1] does the source give for `CC(C)(C)n1ncc(O)c(-c2ccc(Cl)cc2Cl)c1=O` [I-1-a-5] here?
**A.** at least 80%

**Q.** Which “nematicidal activity in % by the formation of galls” value (Meloidogyne incognita) does the source give for `CC(C)(C)n1ncc(O)c(-c2cc(-c3ccc(Cl)cc3)ccc2Cl)c1=O` [I-1-a-10] here?
**A.** at least 80%
